# Source: patent US5985837A, “Dolastatin 15 derivatives” (BASF Aktiengesellschaft, priority 1998, dated 1999)
# Tests used:
# [1] = tested on: tumor cells such as the HT-29 colon carcinoma or LX-1 lung tumor; experiment: Cytotoxicity, microculture tetrazolium assay (MTT); type: cell-based; details: 48 hours incubation, concentration giving T/C of 50% growth inhibition, cell line not given
# Experimental: Cytotoxicity was measured using a standard methodology for adherent cell lines, such as the microculture tetrazolium assay (MTT). Details of this assay have been published (Alley, M. C. et al., Cancer Research 48:589-601, 1988). Exponentially growing cultures of tumor cells such as the HT-29 colon carcinoma or LX-1 lung tumor were used to make microtiter plate cultures. Cells were seeded at 5000-20,000 cells per well in 96-well plates (in […] of media), and grown overnight at 37° C. Test compounds were added, in 10-fold dilutions varying from 10^-4 M to 10^-10 M. Cells were then incubated for 48 hours. To determine the number of viable cells in each well, the MTT dye was added ([…] of a 3 mg/mL solution of 3-(4,5-dimethylthiazol-2-yl)-2,5-diphenyltetrazolium bromide in saline). This mixture was incubated at 37° C. for 5 hours, and then […] of 25% SDS, pH 2, was added to each well. After an overnight incubation, the absorbance of each well at 550 nm was read using an ELISA reader. The values for the mean ±SD of data from replicated wells were calculated, using the formula % T/C (% viable cells treated/control). The concentration of test compound which gives a T/C of 50% growth inhibition was designated as the IC50.
# [2] = background statement on Dolastatin 15; cited from earlier work
# [3] = tested on: National Cancer Institute's P388 lymphocytic leukemia (PS system) cell line; details: background statement; cited from earlier work
Molecule,IC50 [1],solubility in aqueous systems [2],inhibition of cell growth [3]
2-(Me2 Val-Val-MeVal-Pro-NH)--C6 H4 --CO--CH3 [IV-1],> 1000 nM,–,–
"CNC(=O)c1ccccc1NC(=O)[C@@H]1CCCN1C(=O)[C@H](C(C)C)N(C)C(=O)[C@@H](NC(=O)[C@H](C(C)C)N(C)C)C(C)C [Compound I-1, 2-(Me2 Val-Val-MeVal-Pro-NH)--C6 H4 C(O)NHCH3]",400 nM,–,–
"CC(C)[C@H](NC(=O)[C@H](C(C)C)N(C)C)C(=O)N(C)[C@H](C(=O)N1CCC[C@H]1C(=O)Nc1ccccc1C(=O)NCc1ccccc1)C(C)C [Compound I-2, 2-(Me2 Val-Val-MeVal-Pro-NH)--C6 H4 C(O)NHCH2 C6 H5]",> 1000 nM,–,–
"CC(C)NC(=O)c1ccccc1NC(=O)[C@@H]1CCCN1C(=O)[C@H](C(C)C)N(C)C(=O)[C@@H](NC(=O)[C@H](C(C)C)N(C)C)C(C)C [Compound I-3, 2-(Me2 Val-Val-MeVal-Pro-NH)--C6 H4 C(O)NHCH(CH3)2]",500 nM,–,–
"CC(C)[C@H](NC(=O)[C@H](C(C)C)N(C)C)C(=O)N(C)[C@H](C(=O)N1CCC[C@H]1C(=O)Nc1ccccc1C(=O)Nc1ccccc1)C(C)C [Compound I-4, 2-(Me2 Val-Val-MeVal-Pro-NH)--C6 H4 C(O)NHC6 H5]",400 nM,–,–
"CC(C)[C@H](NC(=O)[C@H](C(C)C)N(C)C)C(=O)N(C)[C@H](C(=O)N1CCC[C@H]1C(=O)Nc1ccccc1C(=O)Nc1nccs1)C(C)C [Compound I-5, 2-(Me2 Val-Val-MeVal-Pro-NH)--C6 H4 C(O)NH(thiazol-2-yl)]",150 nM,–,–
"CNC(=O)c1cc(OC)c(OC)cc1NC(=O)[C@@H]1CCCN1C(=O)[C@H](C(C)C)N(C)C(=O)[C@@H](NC(=O)[C@H](C(C)C)N(C)C)C(C)C [Compound I-6, 2-(Me2 Val-Val-MeVal-ProNH)-4,5-bis(methoxy)C6 H2 C(O)NHCH3]",200 nM,–,–
"CON(C)C(=O)c1ccccc1NC(=O)[C@@H]1CCCN1C(=O)[C@H](C(C)C)N(C)C(=O)[C@@H](NC(=O)[C@H](C(C)C)N(C)C)C(C)C [Compound I-60, (2)-(Me2 Val-Val-MeVal-Pro-NH)-C6 H4 -CON(CH3) (OCH3)]",400 nM,–,–
"CC(C)[C@H](NC(=O)[C@H](C(C)C)N(C)C)C(=O)N(C)[C@H](C(=O)N1CCC[C@H]1C(=O)Nc1ccccc1C(=O)N1CCC(c2ccccc2)O1)C(C)C (stereo partly drawn) [Compound I-64, 2-(Me2 Val-Val-MeVal-Pro-NH)--C6 H4 --CO--N(--(CH2)2 --CH(C6 H5)O--)]",250 nM,–,–
"CC(C)[C@H](NC(=O)[C@H](C(C)C)N(C)C)C(=O)N(C)[C@H](C(=O)N1CCC[C@H]1C(=O)Nc1ccccc1C(=O)NCCCO)C(C)C [Compound I-86, 2-(Me2 Val-Val-MeVal-Pro-NH)--C6 H4 --CO--NH(--(CH2)3 --OH)]",600 nM,–,–
"CC(C)[C@H](NC(=O)[C@H](C(C)C)N(C)C)C(=O)N(C)[C@H](C(=O)N1CCC[C@H]1C(=O)Nc1ccccc1C(=O)NCCC(O)c1ccccc1)C(C)C (stereo partly drawn) [Compound I-87, 2-(Me2 Val-Val-MeVal-Pro-NH)--C6 H4 C(O)NH((CH2)2 CH(C6 H5)OH)]",200 nM,–,–
"CNC(=O)c1cccc(NC(=O)[C@@H]2CCCN2C(=O)[C@H](C(C)C)N(C)C(=O)[C@@H](NC(=O)[C@H](C(C)C)N(C)C)C(C)C)c1 [II-1, 3-(Me2 Val-Val-MeVal-Pro-NH)--C6 H4 --CO--NHCH3]",> 1000 nM,–,–
"CC(C)[C@H](NC(=O)[C@H](C(C)C)N(C)C)C(=O)N(C)[C@H](C(=O)N1CCC[C@H]1C(=O)Nc1cccc(C(=O)NCc2ccccc2)c1)C(C)C [II-2, 3-(Me2 Val-Val-MeVal-Pro-NH)--C6 H4 --CO--NH CH2 C6 H5]",> 1000 nM,–,–
"CC(C)[C@H](NC(=O)[C@H](C(C)C)N(C)C)C(=O)N(C)[C@H](C(=O)N1CCC[C@H]1C(=O)Nc1ccccc1C(=O)c1ccccc1)C(C)C [IV-15, 2-(Me2 Val-Val-MeVal-Pro-NH)--C6 H4 --CO--C6 H5]",70 nM,–,–
Dolastatin 15,–,poor solubility in aqueous systems,markedly inhibits the growth
